Data taken from publication PMC11202169, “A Novel Fluorescence-Based Microplate Assay for High-Throughput Screening of hSULT1As Inhibitors” (Biosensors, 2024).
Like-named read-outs stand apart in the source and are kept apart here.

Key:
[1] = test system: hSULT1As; assay: O-sulfation and spectroscopic changes with hSULT1As (statements for all isoforms together); format: biochemical, human; conditions: substrate 10 μM, all tested hSULT1A isozymes
Protocol: (§1) The incubation system consisted of Tris-HCl buffer (pH 7.4, 50 mM), MgCl2 (5 mM), DTT (200 μM), recombinant hSULT1As (29 pmol), and each fluorophore or 4-HN derivative (10 μM). After pre-incubation at 37 °C for 3 min, the reaction was initiated by adding an excess of PAPS (200 μM). Following 1 h incubation, the reaction was terminated with the addition of an equal volume of ice-cold acetonitrile. After centrifugation at 20,000× g for 20 min at 4 °C, the supernatant was collected for HPLC analysis. The mobile phase consisted of 10 mM aqueous ammonium acetate (A) and acetonitrile (B) at a flow rate of 0.4 mL/min. Gradient elution was performed under the following conditions: 0–2.0 min, 5% B; 2.0–10.0 min, 5–95% B; 10.0−12.0 min, 95% B; 12.0–12.5 min, 95–5% B; and 12.5–15.0 min, 5% B.
The spectroscopic changes in these fluorophores following O-sulfation were investigated. The incubation system was the same as that used in Section 2.3. The emission spectra of eight fluorophores in the presence and absence of three hSULT1A isoforms were determined using BioTek Synergy H1.

[2] = biological target: T1, hSULT1A2 (Homo sapiens, UniProt P50226); assay: hSULT1As reaction phenotyping assay (HPLC), hSULT1A2; format: biochemical; conditions: for Sulfation rate: peak area of the sulfated metabolite detected by HPLC, hSULT1A2: fluorophore 10 μM, PAPS 200 μM, 1 h, 37 °C
T1 construct: 6-histidine tag (N); TEV site (N); made in house; host or cells: Escherichia coli BL21 (DE3), pET29a(+)
T1 sequence (P50226 whole entry): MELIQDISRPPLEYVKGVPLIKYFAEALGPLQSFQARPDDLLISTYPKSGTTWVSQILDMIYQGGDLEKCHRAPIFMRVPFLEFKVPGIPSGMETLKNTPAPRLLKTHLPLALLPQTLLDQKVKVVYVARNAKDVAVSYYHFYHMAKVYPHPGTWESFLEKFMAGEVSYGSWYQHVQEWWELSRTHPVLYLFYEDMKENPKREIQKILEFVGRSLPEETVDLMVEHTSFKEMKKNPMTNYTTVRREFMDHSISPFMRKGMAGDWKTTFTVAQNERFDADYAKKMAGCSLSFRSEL
Protocol: as §1

[3] = biological target: T2, hSULT1A1 (Homo sapiens, UniProt P50225); assay: hSULT1As reaction phenotyping assay (HPLC), hSULT1A1; format: biochemical; conditions: for Sulfation rate: peak area of the sulfated metabolite detected by HPLC, hSULT1A1: fluorophore 10 μM, PAPS 200 μM, 1 h, 37 °C
T2 construct: 6-histidine tag (N); TEV site (N); made in house; host or cells: Escherichia coli BL21 (DE3), pET29a(+)
T2 sequence (P50225 whole entry): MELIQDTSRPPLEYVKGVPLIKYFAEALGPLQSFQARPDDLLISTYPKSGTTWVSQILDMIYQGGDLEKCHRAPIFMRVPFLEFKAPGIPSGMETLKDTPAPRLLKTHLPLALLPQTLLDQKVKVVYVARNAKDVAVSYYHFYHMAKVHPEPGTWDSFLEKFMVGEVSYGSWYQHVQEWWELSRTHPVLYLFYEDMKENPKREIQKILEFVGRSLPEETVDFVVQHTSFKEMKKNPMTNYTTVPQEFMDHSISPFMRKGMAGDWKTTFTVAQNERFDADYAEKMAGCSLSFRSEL
Protocol: as §1

[4] = biological target: T1, hSULT1A2; assay: Fluorescence-based microplate inhibition assay, hSULT1A2-catalyzed HN-241 4-O-sulfation; format: biochemical; conditions: for remaining activity at 10 µM: 0.25 h, read-out: Residue activity (%) hSULT1A2
[5] = biological target: T2, hSULT1A1; assay: Fluorescence-based microplate inhibition assay, hSULT1A1-catalyzed HN-241 4-O-sulfation; format: biochemical; conditions: for activity at 1 µM: read-out: Residue activity (%) hSULT1A1;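 as to all read-outs here: reaction started with 200 µM PAPS at 37 °C, fluorescence read continuously (Ex 350 nm, Em 450 nm), activity expressed relative to DMSO-only control without inhibitor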
[6] = biological target: T3, hSULT1A3 (Homo sapiens, UniProt P0DMM9); assay: Fluorescence-based microplate inhibition assay, hSULT1A3-catalyzed HN-241 4-O-sulfation; format: biochemical; conditions: for activity at 10 µM: read-out: Residue activity (%) hSULT1A3
T3 construct: 6-histidine tag (N); TEV site (N); made in house; host or cells: Escherichia coli BL21 (DE3), pET29a(+)
T3 sequence (P0DMM9 whole entry): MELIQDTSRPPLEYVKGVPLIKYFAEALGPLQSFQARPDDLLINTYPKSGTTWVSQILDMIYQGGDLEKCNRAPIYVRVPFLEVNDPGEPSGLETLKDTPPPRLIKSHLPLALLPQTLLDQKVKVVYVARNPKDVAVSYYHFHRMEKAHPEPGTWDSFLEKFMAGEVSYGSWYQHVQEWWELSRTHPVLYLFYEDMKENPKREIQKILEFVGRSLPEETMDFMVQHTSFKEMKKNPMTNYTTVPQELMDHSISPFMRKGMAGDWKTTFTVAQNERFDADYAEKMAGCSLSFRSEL

[7] = test compound 10 μM, HN-241 5 μM, 15 min
[8] = test compound 1 μM, HN-241 1 μM, 15 min
[9] = test compound 10 μM, HN-241 10 μM, 15 min

CN(C)CCN1C(=O)c2cccc3c(O)ccc(c23)C1=O [HN-283]
O-sulfation by hSULT1As (in words) [1]: very slow O-sulfation rates

O=C(O)CCCN1C(=O)c2cccc3c(O)ccc(c23)C1=O [HN-299]
O-sulfation by hSULT1As (in words) [1]: very slow O-sulfation rates

O=C1c2cccc3c(O)ccc(c23)C(=O)N1CCc1ccccc1 [HN-317]
O-sulfation by hSULT1As (in words) [1]: very slow O-sulfation rates

O=C1c2cccc3c(O)ccc(c23)C(=O)N1CCc1ccc(F)cc1 [HN-335]
O-sulfation by hSULT1As (in words) [1]: very slow O-sulfation rates

Cc1ccc(NC(=O)CCCN2C(=O)c3cccc4c(O)ccc(c34)C2=O)cc1 [HN-388]
O-sulfation in hSULT1A2 (in words) ([2]; 4-HN derivative 10 μM): scarcely metabolized | O-sulfation in hSULT1A1 (in words) ([3]; 4-HN derivative 10 μM): rapidly metabolized

O=C(/C=C/c1ccc(O[C@@H]2O[C@H](CO)[C@@H](O)[C@H](O)[C@H]2O)cc1)c1ccc(O)cc1O [Neoisoliquiritigenin]
Residue activity (%) hSULT1A2 [4, 7]: 84.48% | Residue activity (%) hSULT1A1 [5, 8]: 91.36% | Residue activity (%) hSULT1A3 [6, 9]: 108.00%

CC1(C)CC[C@]2(C(=O)O)CC[C@]3(C)C(=CC[C@@H]4[C@@]5(C)CC[C@H](O)C(C)(C)[C@@H]5CC[C@]43C)[C@@H]2C1 [Oleanolic acid]
remaining activity at 10 µM [4, 7]: 101% | activity at 1 µM [5, 8]: 127% | activity at 10 µM [6, 9]: 114%

CCCCCCCCCCCCCCCC(=O)O [Palmitic acid]
remaining activity at 10 µM [4, 7]: 84.8% | activity at 1 µM [5, 8]: 93.1% | activity at 10 µM [6, 9]: 113%

COc1ccc(-c2cc(=O)c3c(O)c(OC)c(O)cc3o2)cc1 [Pectolinarigenin]
remaining activity at 10 µM [4, 7]: 0% | IC50 ([4]; hSULT1A2-catalyzed HN-241 4-O-sulfation): 87.2 ± 3.16 nM | IC50 ([5]; hSULT1A1-catalyzed HN-241 4-O-sulfation): 9.52 ± 0.39 nM | activity at 1 µM [5, 8]: 1.12% | IC50 ([6]; hSULT1A3-catalyzed HN-241 4-O-sulfation): 4360 ± 252 nM | activity at 10 µM [6, 9]: 1.34%

COc1cc([C@@H]2c3cc4c(cc3[C@H](O)[C@H]3COC(=O)[C@H]23)OCO4)cc(OC)c1OC [Podophyllotoxin]
remaining activity at 10 µM [4]: 88.9% | activity at 1 µM [5]: 110% | activity at 10 µM [6]: 111%

O=c1c(O)c(-c2ccc(O)c(O)c2)oc2cc(O)cc(O)c12 [Quercetin, reference compound]
remaining activity at 10 µM [4, 7]: 0.1% | activity at 1 µM [5, 8]: 0% | activity at 10 µM [6, 9]: 39.9%

C[C@]12CC[C@H](O)C[C@H]1CC[C@@H]1[C@@H]2CC[C@]2(C)[C@@H](c3ccc(=O)oc3)C[C@H]3O[C@]132 [Resibufogenin]
remaining activity at 10 µM [4]: 99.2% | activity at 1 µM [5]: 127% | activity at 10 µM [6]: 113%

O=C(O)c1cc(O)c2c(c1)C(=O)c1cccc(O)c1C2=O [Rhein]
remaining activity at 10 µM [4, 7]: 0.83% | activity at 1 µM [5, 8]: 59.4% | activity at 10 µM [6, 9]: 96.9%

C=C(C)[C@H]1Cc2c(ccc3c2O[C@@H]2COc4cc(OC)c(OC)cc4[C@@H]2C3=O)O1 [Rotenone]
remaining activity at 10 µM [4]: 102% | activity at 1 µM [5]: 109% | activity at 10 µM [6]: 106%

COc1cc2c(c(OC)c1OC)-c1c(cc(OC)c(OC)c1OC)C[C@](C)(O)[C@@H](C)C2 [Schisandrin]
Residue activity (%) hSULT1A2 [4, 7]: 102.92% | Residue activity (%) hSULT1A1 [5, 8]: 129.29% | Residue activity (%) hSULT1A3 [6, 9]: 123.25%

C/C=C(/C)C(=O)O[C@H]1c2cc(OC)c(OC)c(OC)c2-c2c(cc3c(c2OC)OCO3)C[C@H](C)[C@]1(C)O [Schisantherin B]
remaining activity at 10 µM [4, 7]: 109% | activity at 1 µM [5, 8]: 109% | activity at 10 µM [6, 9]: 108%

COc1ccc(-c2cc(=O)c3c(O)cc(O)c(-c4cc(-c5cc(=O)c6c(O)cc(OC)cc6o5)ccc4OC)c3o2)cc1 [Sciadopitysin]
Residue activity (%) hSULT1A2 [4, 7]: 2.03% | Residue activity (%) hSULT1A1 [5, 8]: 27.69% | Residue activity (%) hSULT1A3 [6, 9]: 62.24%

CC(C)=CC[C@@H](O)C1=CC(=O)c2c(O)ccc(O)c2C1=O [Shikonin]
remaining activity at 10 µM [4, 7]: 18.6% | activity at 1 µM [5, 8]: 64.5% | activity at 10 µM [6, 9]: 61%

COC1=C[C@@H]2[C@@H]3Cc4ccc(OC)c(O)c4[C@]2(CCN3C)CC1=O [Sinomenine]
remaining activity at 10 µM [4, 7]: 103% | activity at 1 µM [5, 8]: 103% | activity at 10 µM [6, 9]: 110%

O=C1c2c(O)cc(O)cc2OC(c2ccc(O)c(O)c2)C1O (centres unmarked) [Taxifolin]
remaining activity at 10 µM [4, 7]: 41.7% | activity at 1 µM [5, 8]: 3.26% | activity at 10 µM [6, 9]: 59.7%

COc1c(O)cc2occ(-c3ccc(O)cc3)c(=O)c2c1O [Tectorigenin]
remaining activity at 10 µM [4, 7]: 4.26% | activity at 1 µM [5, 8]: 4.17% | activity at 10 µM [6, 9]: 86.8%

O=C(O[C@@H]1[C@@H](O)[C@H](Oc2cc(O)c(C(=O)CCc3ccccc3)c(O)c2)O[C@@H]2COC(=O)c3cc(O)c(O)c(O)c3-c3c(cc(O)c(O)c3O)C(=O)O[C@@H]12)c1cc(O)c(O)c(O)c1 [Thonningianin A]
remaining activity at 10 µM [4, 7]: 3.29% | activity at 1 µM [5, 8]: 12% | activity at 10 µM [6, 9]: 17.6%

CC(C)[C@]12O[C@H]1[C@@H]1O[C@]13[C@]1(O[C@H]1C[C@H]1C4=C(CC[C@@]13C)C(=O)OC4)[C@@H]2O [Triptolide]
remaining activity at 10 µM [4, 7]: 119% | activity at 1 µM [5, 8]: 109% | activity at 10 µM [6, 9]: 110%

O=c1cc(-c2ccc(O)cc2)oc2c([C@@H]3O[C@H](CO)[C@@H](O)[C@H](O)[C@H]3O)c(O)cc(O)c12 [Vitexin]
remaining activity at 10 µM [4, 7]: 115% | activity at 1 µM [5, 8]: 102% | activity at 10 µM [6, 9]: 108%

Cc1c2[n+](cc3cc4c(cc13)OCO4)CCc1cc3c(cc1-2)OCO3 [Worenine]
Residue activity (%) hSULT1A2 [4, 7]: 92.89% | Residue activity (%) hSULT1A1 [5, 8]: 101.91% | Residue activity (%) hSULT1A3 [6, 9]: 125.56%

C/C1=C\CC(C)(C)/C=C/C(=O)/C(C)=C/CC1 [Zerumbone]
remaining activity at 10 µM [4, 7]: 113% | activity at 1 µM [5, 8]: 102% | activity at 10 µM [6, 9]: 108%

O=c1ccc2nc3ccc(O)cc3oc-2c1 [fluorophore A]
Sulfation rate: peak area of the sulfated metabolite detected by HPLC, hSULT1A2 [2]: + (“+” shows the peak area of the sulfated metabolites of each fluorophore detected by HPLC, ranging from 0 to 10,000) | Sulfation rate: peak area of the sulfated metabolite detected by HPLC, hSULT1A1 [3]: ++ (“++” and “+++” denote ranges from 10,000 to 50,000, and greater than 50,000, respectively)

CC1=[N+]2C(=C(c3ccc(O)cc3)c3ccc(C)n3[B-]2(F)F)C=C1 [fluorophore C]
O-sulfation by hSULT1As (in words) [1]: could not be sulfated

N#CC(C#N)=C1C=C(/C=C/c2ccc(O)cc2)Oc2ccccc21 [fluorophore D]
Sulfation rate: peak area of the sulfated metabolite detected by HPLC, hSULT1A2 [2]: ++ (“++” and “+++” denote ranges from 10,000 to 50,000, and greater than 50,000, respectively) | Sulfation rate: peak area of the sulfated metabolite detected by HPLC, hSULT1A1 [3]: +++ (“++” and “+++” denote ranges from 10,000 to 50,000, and greater than 50,000, respectively)

CC1(C)OC(=C(C#N)C#N)C(C#N)=C1/C=C/c1ccc2cc(O)ccc2c1 [fluorophore F]
Sulfation rate: peak area of the sulfated metabolite detected by HPLC, hSULT1A2 [2]: + (“+” shows the peak area of the sulfated metabolites of each fluorophore detected by HPLC, ranging from 0 to 10,000) | Sulfation rate: peak area of the sulfated metabolite detected by HPLC, hSULT1A1 [3]: +++ (“++” and “+++” denote ranges from 10,000 to 50,000, and greater than 50,000, respectively)

CCCCN1C(=O)c2cccc3c4c(cc(c23)C1=O)C(C)(C)C(/C=C/c1ccc(O)cc1)=N4 [fluorophore G]
O-sulfation by hSULT1As (in words) [1]: could not be sulfated

CC(C)=CCc1cc(-c2oc3cc(O)cc(O)c3c(=O)c2O)ccc1O [iso-Licoflavonol]
remaining activity at 10 µM [4, 7]: 0.03% | activity at 1 µM [5, 8]: 3.31% | activity at 10 µM [6, 9]: 62.1%

O=C(/C=C/c1ccccc1)c1ccccc1 [trans-Chalcone]
Residue activity (%) hSULT1A2 [4, 7]: 91.40% | Residue activity (%) hSULT1A1 [5, 8]: 71.86% | Residue activity (%) hSULT1A3 [6, 9]: 116.88%

Ginkgolic acid
Residue activity (%) hSULT1A2 [4, 7]: 13.44% | Residue activity (%) hSULT1A1 [5, 8]: 12.05% | Residue activity (%) hSULT1A3 [6, 9]: 66.66%

Gomisin A
Residue activity (%) hSULT1A2 [4, 7]: 97.44% | Residue activity (%) hSULT1A1 [5, 8]: 129.03% | Residue activity (%) hSULT1A3 [6, 9]: 122.78%

Hydroxysafflor yellow A
Residue activity (%) hSULT1A2 [4, 7]: 100.46% | Residue activity (%) hSULT1A1 [5, 8]: 97.09% | Residue activity (%) hSULT1A3 [6, 9]: 99.76%

Myricitrin
Residue activity (%) hSULT1A2 [4, 7]: 84.45% | Residue activity (%) hSULT1A1 [5, 8]: 96.68% | Residue activity (%) hSULT1A3 [6, 9]: 110.49%

Sennosides
Residue activity (%) hSULT1A2 [4, 7]: 3.06% | Residue activity (%) hSULT1A1 [5, 8]: 26.92% | Residue activity (%) hSULT1A3 [6, 9]: 19.21%
